In the assay the target is T1, Histamine H3 Receptor (Rattus norvegicus, UniProt Q9QYN8).
T1 construct: from tissue; host or cells: rat cerebral cortex membranes
Nature of the assay: In Vitro Histamine H3 Receptor Binding Analysis ([3H]-Nα-methylhistamine, rat cortical membranes). The protocol:
Histamine H3 receptor affinity was determined in rat cortical membranes using the H3 selective agonist ligand, [^3 H]-N^α -methylhistamine (78.9 Ci/mmole, DuPont NEN Research Products, Boston, Mass.) according to the method of West et al., (1990) Mol. Pharmacol. 38: 610-613 with modifications. Briefly, animals were sacrificed by decapitation and the cerebral cortex was rapidly removed. Rat cortices were mechanically homogenized with an Omni 1000 motor driven homogenizer in 10 volumes (wt/vol) of Krebs-Ringers Hepes buffer (pH 7.4) containing the following protease inhibitors; EDTA (10 mmol), PMSF (0.1 mM), chymostatin (0.2 mg/50 mL) and leupeptin (0.2 mg/50 mL). The homogenate was centrifuged in a Sorvall at ~40,000 x g for 30 min. The pellet was resuspended by mechanical homogenization in 25 mL water and lysed on ice for 30 min. The homogenate was recentrifuged and the membrane lysis was repeated. The membranes were recentrifuged and the final pellet was resuspended in 14 volumes of water to give approximately 200 μg protein/100 μl final concentration. The suspension was stored at -80° C. prior to use. Protein concentrations were determined by Coomassie Plus Protein Assay (Pierce, Rockford, Ill.).
Nonspecific binding (NSB) was accounted for by the inclusion of thioperamide (10 μM). Samples were incubated for 40 minutes at 25° C. The samples were filtered through glass fiber strips, pre-washed with 0.3% polyethyleneimine, using a Brandell cell harvester. The filters were rapidly washed three times with 4 ml of 25 mM Tris buffer containing 145 mM NaCl (pH 7.4, 4° C.). Filters were transferred to polyethylene minivials and counted in 3.5 ml of scintillation fluid (Ecolume, ICN Biomedicals, Inc.). Using this procedure, the non-specific binding was less than 10% of the total binding and the binding to the glass fiber filters was negligible. Saturation and competition experiments were analyzed with the ReceptorFit saturation and competition curve fitting programs (Lundon Software, Inc., Cleveland, Ohio).

[1] abbreviates: rat cortical membranes, 0.8-1.2 nM [3H]-Nα-methylhistamine, 40 minutes at 25° C., pH 7.4, read-out: H3 Receptor Ki.

The source of these data is patent US6008240A, “2-(1H-4(5)-imidazoyl) cyclopropyl derivatives” (Gliatech, Inc., priority 1997, dated 1999).

Counter-ions that a name gives are not always drawn. Like-named read-outs stand apart in the source and are kept apart here.

T1 sequence (Q9QYN8 whole entry): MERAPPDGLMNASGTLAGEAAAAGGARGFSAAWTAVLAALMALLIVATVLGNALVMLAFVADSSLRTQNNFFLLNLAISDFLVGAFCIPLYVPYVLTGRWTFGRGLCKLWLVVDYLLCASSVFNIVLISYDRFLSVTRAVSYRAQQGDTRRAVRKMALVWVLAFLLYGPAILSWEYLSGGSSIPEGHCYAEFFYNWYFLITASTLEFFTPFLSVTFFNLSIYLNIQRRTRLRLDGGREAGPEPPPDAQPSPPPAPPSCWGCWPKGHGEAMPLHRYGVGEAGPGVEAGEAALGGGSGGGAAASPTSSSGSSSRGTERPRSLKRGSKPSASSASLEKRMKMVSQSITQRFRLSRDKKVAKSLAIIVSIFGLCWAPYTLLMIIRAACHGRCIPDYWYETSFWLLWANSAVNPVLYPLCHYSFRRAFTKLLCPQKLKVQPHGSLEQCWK

In general, Ki refers to the equilibrium dissociation constant of an inhibitor or competing ligand from its target. `CC(C)CCC#C[C@@H]1C[C@H]1c1cnc[nH]1` (relative stereo) [Example 40, (±)-4-(2-(5-Methylhex-1-ynyl)cyclopropyl)imidazole]: the affinity, expressed as Ki, was 6.5 ± 1.5 nM.
On the same count and under the same terms, for `N[C@@H](CC1CCCCC1)C(=O)N[C@@H]1C[C@H]1c1cnc[nH]1` [Example 12, (1R,2R)-trans-2-(S)-amino-3-cyclohexyl-N-(2-imidazol-4-ylcyclopropyl)propanamide] the value was 1.85 ± 0.5 nM.
Turning to `CC1CCCCN1CCCNC(=O)[C@@H]1C[C@H]1c1c[nH]cn1` (relative stereo) [Example 3, (±)-trans-(2-imidazol-4-ylcyclopropyl)-N-(3-((±)-2-methylpiperidyl)propyl)formamide], the Ki under setting [1] amounted to 659 ± 52 nM.
With `C[C@@H](NC(=O)[C@@H]1C[C@H]1c1cnc[nH]1)C1CCCCC1` (mixture of isomers) [Example 6, N-[(R)-1-cyclohexylethyl]-3-(1H-imidazol-4-yl)-trans-(2R,3R)-cyclopropanamide and N-[(R)-1-cyclohexylethyl]-3-(1H-imidazol-4-yl)-trans-(2S,3S)-cyclopropanamide hydrochloride], the affinity corresponds to a Ki of 70 ± 8.6 nM.
For the compound `c1nc([C@@H]2C[C@H]2COCCCC2CCCCC2)c[nH]1` (racemic) [Example 18, (±)-trans-(3-Cyclohexylpropoxy)(2-imidazol-4-ylcyclopropyl)methane], the Ki under setting [1] was 240 ± 6 nM.
`C(#C[C@@H]1C[C@H]1c1c[nH]cn1)CCC1CCCC1` (racemic) [Example 54, (±)-trans-4-(2-(4-Cyclopentylbut-1-ynyl)cyclopropyl)imidazole] came in with a Ki of 1.43 ± 0.33 nM.
Regarding `N[C@H](/C=C\[C@@H]1C[C@H]1c1c[nH]cn1)CC1CCCCC1` [Example 21, (1R,2R)-trans-1-Cyclohexyl-4-(2-imidazol-4-ylcyclopropyl)but-cis-3-en-2(S)-ylamine], the Ki (read-out: H3 Receptor Ki, rat cortical membranes, 0.8-1.2 nM [3H]-Nα-methylhistamine, 40 minutes at 25° C., pH 7.4) was determined as 97.7 ± 28 nM.
In the case of `O=C(NCCc1c[nH]c2ccccc12)[C@@H]1C[C@H]1c1c[nH]cn1` (relative stereo) [Example 35, (±)-trans-(2-imidazol-4-ylcyclopropyl)-N-(2-indol-3-ylethyl) formamide], under setting [1], the Ki stood at 441 ± 73 nM.
Consider `CC(C)(C)CC/C=C\[C@H]1C[C@H]1c1c[nH]cn1` [Example 42, (1R,2R)-4-(2-(5,5-Dimethyl-cis-hex-1-enyl)cyclopropyl)imidazole], for which the Ki was 41 ± 4 nM.
On the same count and under the same terms, for `O=C(N[C@@H]1C[C@H]1c1cnc[nH]1)OCc1ccccc1Br` (relative stereo) [Example 50, (±)-trans-(2-Bromophenyl)methoxy)-N-(2-imidazol-4-ylcyclopropyl) formamide] the value was 8 ± 0.43 nM.
`CC(C)(C)CCC#C[C@H]1C[C@@H]1c1cnc[nH]1` [Example 52, (1S,2S)-trans-4-(2-(5,5-Dimethylhex-1-ynyl)cyclopropyl)imidazole]: the Ki under setting [1] was 5.3 ± 0.5 nM.
On the same count and under the same terms, for `O=C(N[C@@H]1C[C@H]1c1cnc[nH]1)OCCCc1ccccc1` (relative stereo) [Example 47, (±)-trans-N-(2-imidazol-4-ylcyclopropyl)(3-phenylpropoxy)formamide] the value was 41 ± 3.4 nM.
Compound `O=C(N[C@@H]1C[C@H]1c1cnc[nH]1)OCc1cccc(Br)c1` (relative stereo) [Example 51, (±)-trans-((3-Bromophenyl)methoxy)-N-(2-imidazol-4-ylcyclopropyl) formamide] had an inhibition constant Ki of 9.9 ± 0.35 nM.
Same read-out and setting: for `O=C(N[C@@H]1C[C@H]1c1cnc[nH]1)OCCC1CCCC1` (relative stereo) [Example 49, (±)-trans-(2-Cyclopentylethoxy)-N-(2-imidazol-4-ylcyclopropyl) formamide] the value was 13 ± 1.5 nM.
In the case of `N[C@H](Cc1ccc(Br)cc1)C(=O)N[C@@H]1C[C@H]1c1c[nH]cn1` (racemic) [Example 43, (1R,2R)-trans-(±)-2-Amino-3-(4-bromophenyl)-N-(2-imidazol-4-ylcyclopropyl)propanamide], the Ki under setting [1] came out at 13.7 ± 1.5 nM.
Same read-out and setting: for `O=C(N[C@@H]1C[C@H]1c1cnc[nH]1)OCCCC1CCCCC1` (relative stereo) [Example 48, (±)-trans-(3-Cyclohexylpropoxy)-N-(2-imidazol-4-ylcyclopropyl) formamide] the value was 55 ± 11 nM.
In turn, `C(=C/[C@@H]1C[C@H]1c1c[nH]cn1)/CCC1CCCCC1` [Example 23, (1R, 2R)-trans-4-(2-(4-Cyclohexylbut-cis-1-enyl)cyclopropyl)imidazole] displayed a Ki of 6.2 ± 0.8 nM.
`O=C(NCCCC1CCCCC1)[C@@H]1C[C@H]1c1c[nH]cn1` (relative stereo) [Example 29, N-[3-cyclohexylpropyl]-3(R)-[1H-imidazol-4-yl]-2(R)-cyclopropanamide and N-[3-cyclohexylpropyl]-3(S)-[1H-imidazol-4-yl]-2(S)-cyclopropanamide] gave a Ki of 36 ± 8 nM.
For the compound `O=C(NCCc1c[nH]cn1)[C@@H]1C[C@H]1c1c[nH]cn1` (relative stereo) [Example 34, (±)-trans-(2-imidazol-4-ylcyclopropyl)-N-(2-imidazol-4-ylethyl) formamide], under setting [1], the Ki was 227 ± 26 nM.
On the same count and under the same terms, for `CC(C)(C)CCC#C[C@@H]1C[C@H]1c1c[nH]cn1` (relative stereo) [Example 38, (±)-4-(2-(5,5-Dimethylhex-1-ynyl)cyclopropyl)imidazole] the value was 0.33 ± 0.1 nM; for `C[C@H](NC(=O)[C@@H]1C[C@H]1c1cnc[nH]1)C1CCCCC1` (mixture of isomers) [Example 7, N-[(S)-1-cyclohexylethyl]-3-(1H-imidazol-4-yl)- trans-(2R,3R)-cyclopropanamide and N-[(S)-1-cyclohexylethyl]-3-(1H-imidazol-4-yl)-trans-(2S,3S)-cyclopropanamide hydrochloride], 146 ± 13 nM.
As to `C(=C/[C@H]1C[C@@H]1c1c[nH]cn1)/CCC1CCCCC1` [Example 24, (1S, 2S)-trans-4-(2-(4-Cyclohexylbut-cis-1-enyl)cyclopropyl)imidazole], under setting [1], the Ki was determined as 108 ± 3 nM.
Same read-out and setting: for `O=C(NCCCCC1CCCCC1)[C@@H]1C[C@H]1c1c[nH]cn1` (relative stereo) [Example 37, (±)-trans-N-(4-Cyclohexylbutyl)(2-imidazol-4-ylcyclopropyl)formamide] the value was 68 ± 9.1 nM; for `O=C(NCC1CCCCC1)[C@@H]1C[C@H]1c1c[nH]cn1` [Example 2b], 176 ± 9 nM.
Consider `N[C@@H](CC1CCCCC1)C(=O)N[C@H]1C[C@@H]1c1cnc[nH]1` [Example 13, (1S,2S)-trans-2-(S)-amino-3-cyclohexyl-N-(2-imidazol-4-ylcyclopropyl)propanamide], for which affinity was put at a Ki of 21.5 ± 1.8 nM.
Still for that read-out and setting: for `O=C(N[C@@H]1C[C@H]1c1c[nH]cn1)OCc1ccccc1` (relative stereo) [Example 26, (±)-trans-N-(2-imidazol-4-ylcyclopropyl)(phenylmethoxy)formamide] the value was 5.8 ± 0.4 nM.
Regarding `O=C(NCC1CC1)[C@@H]1C[C@H]1c1c[nH]cn1` (relative stereo) [Example 32, (±)-trans-N-(Cyclopropylmethyl)(2-imidazol-4-ylcyclopropyl)formamide], under setting [1], the Ki is 876 ± 158 nM.
For `O=C(N[C@@H]1C[C@H]1c1c[nH]cn1)OCCC1CCCCC1` (relative stereo) [Example 46, (±)-trans-(Cyclohexylethoxy)-N-(2-imidazol-4-cyclopropyl) formamide], the inhibition constant Ki is 29 ± 1.2 nM.
